Entries after “also recorded” stand apart in the source; their conditions may differ.
What was measured:
[1] = system: hAPP mice and non-transgenic littermates; test: Morris water maze spatial learning and memory test; assay type: in vivo, mouse
Experimental: 53 days after the treatment, mice were trained in the Morris water maze (MWM) spatial navigation task in which a mouse swims to find a hidden platform, using visual cues. The task is based on the principle that rodents are highly motivated to escape from a water environment by the quickest, most direct route. This task is carried out in a circular pool (1 meter diameter) filled with water (22±1° C.) and virtually divided into four quadrants. A platform is placed in the southwest quadrant 1 cm beneath the surface of the water. The computer randomly changes the starting positions of an animal. On four consecutive days mice attend three trials per day (each lasting for a maximum of 60 seconds). Escape latency (time to find the hidden platform), and length of swimming path were measured. Significant differences of the behavioral results were calculated with the Mann Whitney U-test.
To analyze the effect of CP-113,818 treatment on cognitive function of hAPP mice, we performed Morris water maze spatial learning and memory tests on the animals. Since hAPP mice develop cognitive deficits starting at 6 months of age, the 6.5 month-old animals in our study were only expected to show slight deterioration due to Aβ accumulation, when compared to non-transgenic littermates. […] Clear impairment of cognitive function due to Aβ accumulation was only observed in female transgenic mice. […] This could have been due to a ceiling effect owing to maximum swimming speed. Compared to placebo, the improvement between day 1 and day 3 due to CP-113,818 treatment was significant (p<0.033). […] Although testing of more mice at an older age will be needed to further assess the effect of decreased amyloid pathology on spatial learning and memory, improved performance in a Morris water maze test correlated well with the highly significant decrease of overall plaque load and Aβ in CP-113,818-treated female animals.

adrenal cortical cells = test: Adrenal gland histology (hematoxylin and eosin) for CP-113,818 toxicity in hAPP mice; assay type: in vivo; conditions: 7.2 mg/kg per day, two months, 7.2 mg/kg/day
Experimental: Animals were sacrificed the day after the last MWM training, on day 57 of treatment. Blood was obtained by cardiac puncture and total serum was used for cholesterol determination. Transcardiac perfusion with 4C PBS was performed, followed by dissection. Brains were removed, divided along the sagittal plane and then either frozen in liquid nitrogen or imersion fixed with 4% paraformaldehyde for histologic evaluation. Liver was frozen in liquid nitrogen, and adrenal glands were fixed in 4% paraformaldehyde followed by standard paraffin embedding and sectioning. Hematoxylin and eosin stained 6-8 um sections were analyzed for evidence of CP-113,818 toxicity.
To characterize the effect of CP-113,818 treatment on AD-like pathology, we used hAPP mice that express human APP751 containing the London (V717I) and Swedish (K670M/N671L) mutations under the regulatory control of the murine Thy-1 promoter (mThy1-hAPP751) (Rockenstein et al., 2001). These animals develop detectable plaques in the neocortex and hippocampus at the ages of 4 and 6 months, respectively, and show memory deficits starting at 6 months of age. […] Therefore, we included similar numbers of male and female animals in both placebo and CP-113,818 groups to detect possible gender-specific effects of the inhibitor in our mouse model. […]

CCCCCCCC[C@H](SCCCCCC)C(=O)Nc1c(SC)cc(C)nc1SC [CP-113,818]
spatial learning of all hAPP mice taken together ([1]; all hAPP mice regardless of gender): trend toward acquiring the task quickly | spatial learning performance of female hAPP mice (swimming path, escape latency) ([1]; female hAPP mice, days 54-57 of treatment): reversed the observed impairment; also recorded: improved this performance | spatial learning performance of male hAPP mice ([1]; male hAPP mice): did not affect the performance | swimming path of male non-transgenic animals ([1]; male non-transgenic mice, day four, not escape latency): performed better than the placebo-treated cohort; also recorded: slightly improved | spatial performance of non-transgenic female mice ([1]; non-transgenic female mice): did not affect spatial performance | adrenal toxicity (vacuolization in cytoplasm of adrenal cortical cells) (adrenal cortical cells): no histologic evidence of toxicity; also recorded: did not show signs of vacuolization

From patent publication US20050118226A1, “Methods for treating ACAT-related diseases” (priority 2003, published 2005)
